US20100267561A1, “HERBICIDAL PYRIDAZINONE DERIVATIVES” (priority 2007, published 2010)

What was measured:
Assay in all cases: Test C pre-/postemergence plant response
Assay type in all cases: in vivo
[1] = system: spring wheat (Triticum aestivum); details: Preemergence
Text: (§1) Seeds of plant species selected from annual bluegrass (Poa annua), blackgrass (Alopecurus myosuroides), canola (Brassica rapa), downy bromegrass (Bromus tectorum), green foxtail (Setaria viridis), Italian ryegrass (Lolium multiflorum), canarygrass (Phalaris minor), pigweed (Amaranthus retroflexus), spring barley (Hordeum vulgare), spring wheat (Triticum aestivum), wild mustard (Sinapis arvensis), wild oat (Avena fatua), windgrass (Apera spica-venti), winter barley (Hordeum vulgare), and winter wheat (Triticum aestivum) were planted and treated preemergence with test chemicals formulated in a non-phytotoxic solvent mixture which included a surfactant. At the same time, plants selected from these crop and weed species were treated with postemergence applications of some of the test chemicals formulated in the same manner. Plants ranged in height from 2 to 18 cm (1- to 4-leaf stage) for postemergence treatments.
(§2) Treated plants and controls were maintained in a controlled growth environment for 15 to 25 days after which time all species were compared to controls and visually evaluated. Plant response ratings, summarized in Table C, are based on a scale of 0 to 100 where 0 is no effect and 100 is complete control. A dash (-) response means no test result.

[2] = system: downy bromegrass (Bromus tectorum); details: Preemergence
Text: as §1, §2

[3] = system: blackgrass (Alopecurus myosuroides); details: Preemergence
Text: as §1, §2

wild oat (Avena fatua) = details: Preemergence
Text: as §1, §2

[4] = system: Italian ryegrass (Lolium multiflorum); details: Preemergence
Text: as §1, §2

[5] = system: winter barley (Hordeum vulgare); details: Preemergence
Text: as §1, §2

[6] = system: pigweed (Amaranthus retroflexus); details: Preemergence
Text: as §1, §2

[7] = system: annual bluegrass (Poa annua); details: Preemergence
Text: as §1, §2

[8] = system: winter wheat (Triticum aestivum); details: Preemergence
Text: as §1, §2

[9] = system: windgrass (Apera spica-venti); details: Preemergence
Text: as §1, §2

[10] = system: canarygrass (Phalaris minor); details: Preemergence
Text: as §1, §2

[11] = system: green foxtail (Setaria viridis); details: Preemergence
Text: as §1, §2

[12] = system: wild mustard (Sinapis arvensis); details: Preemergence, scale 0 to 100 (0 no effect, 100 complete control)
Text: as §1, §2

[13] = system: spring barley (Hordeum vulgare); details: Preemergence
Text: as §1, §2

[14] = 8 g ai/ha, scale 0 to 100 (0 no effect, 100 complete control)
[15] = 16 g ai/ha, scale 0 to 100 (0 no effect, 100 complete control)
[16] = 31 g ai/ha, scale 0 to 100 (0 no effect, 100 complete control)
[17] = 62 g ai/ha, scale 0 to 100, 0 no effect, 100 complete control

Cc1cc(-c2ccc(Cl)cc2)nn1-c1c(OC(=O)c2cccc(Cl)c2)cnn(C)c1=O [Compound 32]
10: Plant response rating, Oat, Wild (wild oat (Avena fatua); [15])
0: Plant response rating, Wheat, Spring [1, 14] | Plant response rating, Bromegrass, Downy [2, 14] | Plant response rating, Oat, Wild (wild oat (Avena fatua); [14]) | Plant response rating, Ryegrass, Italian [4, 14] | Plant response rating, Barley, Winter [5, 14] | Plant response rating, Barley, Winter [5, 15] | Plant response rating, Pigweed [6, 14] | Plant response rating, Pigweed [6, 15] | Plant response rating, Pigweed [6, 16] | Plant response rating, Pigweed [6, 17] | Plant response rating, Bluegrass [7, 14] | Plant response rating, Bluegrass [7, 15] | Plant response rating, Bluegrass [7, 16] | Plant response rating, Wheat, Winter [8, 14] | Plant response rating, Windgrass [9, 14] | Plant response rating, Windgrass [9, 15] | Plant response rating, Windgrass [9, 16] | Plant response rating, Canarygrass [10, 14] | Plant response rating, Canarygrass [10, 15] | Plant response rating, Mustard, Wild ([12]; 8 g ai/ha) | Plant response rating, Mustard, Wild ([12]; 16 g ai/ha) | Plant response rating, Mustard, Wild ([12]; 31 g ai/ha) | Plant response rating, Barley, Spring [13, 14] | Plant response rating, Barley, Spring [13, 15]
35: Plant response rating, Wheat, Winter [8, 16]
100: Plant response rating, Foxtail, Green [11, 16] | Plant response rating, Foxtail, Green [11, 17]
40: Plant response rating, Foxtail, Green [11, 14]
75: Plant response rating, Blackgrass [3, 16] | Plant response rating, Ryegrass, Italian [4, 17] | Plant response rating, Windgrass [9, 17] | Plant response rating, Canarygrass [10, 16] | Plant response rating, Foxtail, Green [11, 15] | Plant response rating, Barley, Spring [13, 17]
60: Plant response rating, Wheat, Spring [1, 16] | Plant response rating, Bromegrass, Downy [2, 17]
90: Plant response rating, Canarygrass [10, 17]
70: Plant response rating, Oat, Wild (wild oat (Avena fatua); [17])
25: Plant response rating, Wheat, Spring [1, 15] | Plant response rating, Barley, Spring [13, 16]
65: Plant response rating, Oat, Wild (wild oat (Avena fatua); [16]) | Plant response rating, Barley, Winter [5, 17] | Plant response rating, Wheat, Winter [8, 17]
98: Plant response rating, Wheat, Spring [1, 17] | Plant response rating, Blackgrass [3, 17]
20: Plant response rating, Bromegrass, Downy [2, 15] | Plant response rating, Bromegrass, Downy [2, 16] | Plant response rating, Ryegrass, Italian [4, 15] | Plant response rating, Barley, Winter [5, 16] | Plant response rating, Bluegrass [7, 17] | Plant response rating, Wheat, Winter [8, 15]
